Test results from patent US11213535B2, “Composition containing phytic acid, magnesium and polyphenols for the treatment or prevention of renal lithiasis” (UNIVERSITAT DE LES ILLES BALEARS, priority 2014, dated 2022).

Assay: induction time of calcium oxalate crystallization in synthetic urine
Conditions: 200 mg/L calcium and 50 mg/L oxalate
Method: Thus, when there is neither magnesium nor phytate, the calcium oxalate takes 1 minute to crystallize. This time increases up to 10 minutes when […] magnesium is added and, in turn, it increases up to 44 minutes if, in addition to the 10 mg/L magnesium, 1 mg/L phytate is added.

Compound | induction times of crystallization t (0.5 mg/L phytate, 0 mg/L Mg) [min] | induction times of crystallization t (0.75 mg/L phytate, 0 mg/L Mg) [min] | induction times of crystallization t (1 mg/L phytate, 0 mg/L Mg) [min] | induction times of crystallization t (0 mg/L phytate, 25 mg/L Mg) [min] | induction times of crystallization t (0 mg/L phytate, 75 mg/L Mg) [min] | induction times of crystallization t (0 mg/L phytate, 100 mg/L Mg) [min] | time calcium oxalate takes to crystallize (induction time) (100 mg/L magnesium, no phytate) [min]
O=P(O)(O)O[C@H]1[C@H](OP(=O)(O)O)[C@@H](OP(=O)(O)O)[C@H](OP(=O)(O)O)[C@@H](OP(=O)(O)O)[C@H]1OP(=O)(O)O [phytate, myo-inositol-hexaphosphate] | 3 | 4 | 6.5 | – | – | – | –
[Mg+2] [Mg, magnesium] | – | – | – | 1.5 | 6 | 10 | 10
